Results as given in patent publication US7049282B2, “Inhibition of complement action” (Duke University, priority 1999, dated 2006).

Test system: complement binding to the sheep erythrocyte targets
Test: standard assay of inhibition of complement binding (Miletic et al): sheep erythrocytes sensitized with rabbit antibody, C8D human serum
Assay type: biochemical
Excerpt: In addition to the peptides and derivatives described above, the invention also relates to mimetics of the peptides that have the above-described complement blocking function. The mimetics can be identified using protocols available in the art, including those described by Miletic et al, J. Immunology 156:749 (1996)) which are based on the binding of complement to antibody-sensitized red blood cells and on the binding of complement to solid phase immune complexes. As described below, these protocols can be used to identify complement-blocking peptides and derivatives as well.
Peptides, derivatives and mimetics that block complement function can be identified by incubating a target for an active complement protein, for example, antibody-coated particles (e.g., antibody-sensitized red blood cells) or immune complexes (e.g., bovine serum albumin-anti-bovine serum complexes) bound to a solid support, with the a complement protein or a complement activating system (e.g., containing C3 or C4 or mixtures of complement proteins such as found in serum (e.g., C8 or C9 deficient serum)), in the presence and in the absence of the test agent (peptide, derivative or mimetic). […] The amount of binding can be determined using any of a variety of approaches, including using radiolabeled anti-complement protein IgG. […]

WESNGQPENN
activity in inhibiting complement binding (IgG fragments and peptides isolated from digests): highly active | activity in complement inhibition (synthesized peptides): highly active
